# Experimental data: patent US20210238169A1, “PROCESS FOR PREPARING A COMPOUND OF FORMULA (XIII)” (PULMOCIDE LIMITED, priority 2014, published 2021)
# Assays:
# BEAS2B cells = assay: Cell viability: resazurin assay; assay type: cell-based, human; settings: concentrations up to, at least, 10 μM
# Experimental: BEAS2B cells were seeded in 384-well plates (100 μL; 3000/well/; BD Falcon, Catalogue No 353962) in RPMI-LHC8 (RPMI-1640 and LHC8 media combined in equal proportions) one day before experimentation. For cell-free control wells, RPMI-LHC8 (100 μL) was added. Test compounds (0.5 μL of a DMSO solution) were added to give a final DMSO concentration of 0.5% using an Integra VIAFLO 96 (Integra, Zizers, Switzerland). BEAS2B cells were incubated with each test compound for 1 day (37° C./5% CO2 in RPMI-LHC8). After addition of resazurin stock solution (5 μL, 0.04%) the plates were incubated for a further 4 hr (37° C./5% CO2). The fluorescence of each well at 545 nm (excitation) and 590 nm (emission) was determined using a multi-scanner (Clariostar: BMG Labtech). The percentage loss of cell viability was calculated for each well relative to vehicle (0.5% DMSO) treatment. Where appropriate, a CC50 value was calculated from the concentration-response curve generated from the concentration-response curve for each test compound.
# [1] = tested on: Aspergillus fumigatus (ATCC 13073); assay: Macrophage and neutrophil accumulation into BALF of Aspergillus fumigatus infected mice; assay type: in vivo
# Experimental: Aspergillus fumigatus (ATCC 13073 [strain: NIH 5233], American Type Culture Collection, Manassas, Va., USA) was grown on Malt agar (Nissui Pharmaceutical, Tokyo, Japan) plates for 6-7 days at RT (24±1° C.). Spores were aseptically dislodged from the agar plates and suspended in sterile distilled water with 0.05% Tween 80 and 0.1% agar. On the day of infection, spore counts were assessed by haemocytometer and the inoculum was adjusted to obtain a concentration of 1.67×10^8 spores mL^−1 of physiological saline.
# On day 0, animals were infected with the spore suspension (35 μL intra-nasally).
# Test compounds were administered intra-nasally ([…]) once daily, 30 min before infection on day 0 and then on days 1, 2 and 3 (representing prophylactic treatment) or on days 1, 2 and 3 only (representing therapeutic treatment). For extended prophylactic treatment, test compounds (35 μL of a suspension of 0.0032 or 0.016 mg/mL in physiological saline) were administered intra-nasally once daily for seven days; then 30 min before infection on day 0, and thereafter, either on days 1, 2 and 3 after infection, or on day 0 only. The effects of these treatment paradigms were compared with those obtained when treatment was restricted to one day and 30 min before inoculation and then on days 1, 2 and 3 post infection; or reduced still further to one day and 30 min before infection only.
# Six hours after the last dose, animals were anesthetised, the trachea was cannulated and BALF was collected. The total number of alveolar cells was determined using a haemocytometer, and the numbers of alveolar macrophages and neutrophils were determined by FACS analysis (EPICS® ALTRA II, Beckman Coulter, Inc., Fullerton, Calif., USA) using anti-mouse MOMA2-FITC (macrophage) or anti-mouse 7/4 (neutrophil), respectively, as previously reported (Kimura et al., 2013). The levels of IFN-γ and IL-17 in BALF, and IL-6 and TNFα in serum were determined using Quantikine® mouse IFN-γ, IL-17, IL-6 or TNF-α ELISA kit (R&D systems, Inc., Minneapolis, Minn., USA) respectively. MDA, an oxidative stress marker, was assayed using OxiSelect® TBARS Assay Kits (MDA Quantitation; Cell Biolabs Inc, San Diego, Calif., USA). Aspergillus GM in serum was determination using Platelia GM-EIA kits (Bio-Rad Laboratories, Redmond, Wash., USA). Cut-off index was calculated by the formula: Cut-off index=OD in sample/OD in cut-off control provided in kit. For tissue fungal load assays, 100 mg of lung tissue was removed aseptically and homogenized in 0.2 mL of 0.1% agar in sterile distilled water. Serially diluted lung homogenates were plated on Malt agar plates (50 μL/plate), and incubated at 24±1° C. for 72 to 96 h. The colonies of A. fumigatus on each plate was counted and the fungal titre presented as CFU per gram of lung tissue.
# [2] = Prophylactic Treatment, 0.08 mg/mL intra-nasally
# [3] = Prophylactic Treatment, 0.4 mg/mL intra-nasally
# [4] = Prophylactic Treatment, 2 mg/mL intra-nasally
# [5] = Therapeutic Treatment, 0.4 mg/mL intra-nasally
# [6] = Therapeutic Treatment, 2 mg/mL intra-nasally
# [7] = Therapeutic Treatment, 10 mg/mL intra-nasally
structure (smiles),measurement,setting,value
"Cc1cc(N2CCN(c3ccc(C(=O)Nc4ccc(F)cc4)cc3)CC2)ccc1OC[C@@H]1CO[C@@](Cn2cncn2)(c2ccc(F)cc2F)C1 [Compound (I), 4-(4-(4-(((3R,5R)-5-((1H-1,2,4-triazol-1-yl)methyl)-5-(2,4-difluorophenyl)tetrahydrofuran-3-yl)methoxy)-3-methylphenyl)piperazin-1-yl)-N-(4-fluorophenyl)benzamide]",effect on the viability of BEAS2B bronchial epithelial cells,BEAS2B cells,no or little effect
same,Macrophage cell numbers in BAL,[1]; [2],0.40 ± 0.15 × 10^5/mL
same,"Macrophage cell numbers in BAL, % inhibition",[1]; [2],38%
same,Neutrophil cell numbers in BAL,[1]; [2],0.37 ± 0.04 × 10^5/mL
same,"Neutrophil cell numbers in BAL, % inhibition",[1]; [2],24%
same,Macrophage cell numbers in BAL,[1]; [3],0.32 ± 0.07 × 10^5/mL
same,"Macrophage cell numbers in BAL, % inhibition",[1]; [3],51%
same,Neutrophil cell numbers in BAL,[1]; [3],0.26 ± 0.12 × 10^5/mL
same,"Neutrophil cell numbers in BAL, % inhibition",[1]; [3],47%
same,Macrophage cell numbers in BAL,[1]; [4],0.26 ± 0.05 × 10^5/mL
same,"Macrophage cell numbers in BAL, % inhibition",[1]; [4],60%
same,Neutrophil cell numbers in BAL,[1]; [4],0.22 ± 0.04 × 10^5/mL
same,"Neutrophil cell numbers in BAL, % inhibition",[1]; [4],55%
same,Macrophage cell numbers in BAL,[1]; [5],0.43 ± 0.05 × 10^5/mL
same,"Macrophage cell numbers in BAL, % inhibition",[1]; [5],34%
same,Neutrophil cell numbers in BAL,[1]; [5],0.38 ± 0.04 × 10^5/mL
same,"Neutrophil cell numbers in BAL, % inhibition",[1]; [5],22%
same,Macrophage cell numbers in BAL,[1]; [6],0.40 ± 0.11 × 10^5/mL
same,"Macrophage cell numbers in BAL, % inhibition",[1]; [6],38%
same,Neutrophil cell numbers in BAL,[1]; [6],0.34 ± 0.05 × 10^5/mL
same,"Neutrophil cell numbers in BAL, % inhibition",[1]; [6],31%
same,Macrophage cell numbers in BAL,[1]; [7],0.32 ± 0.07 × 10^5/mL
same,"Macrophage cell numbers in BAL, % inhibition",[1]; [7],51%
same,Neutrophil cell numbers in BAL,[1]; [7],0.27 ± 0.08 × 10^5/mL
same,"Neutrophil cell numbers in BAL, % inhibition",[1]; [7],45%
